{
  "source": "patent US20190167647A1",
  "about": "“PHARMACEUTICAL COMPOSITION FOR STROKE TREATMENT BASED ON AMPK INHIBITION” (INDUSTRY ACADEMY COOPERATION FOUNDATION OF SEJONG UNIVERSITY, priority 2016, published 2019)",
  "key": {"[1]": {"experiment": "Calcium chelation with Fura-2 dye (test tube)", "assay_type": "physicochemical", "procedure": "In order to determine whether the above result is obtained by the chelation of Ca^2+ ions other than the drug #28, protective effects of the drug #28 (10 to 60 μM) after treatment using ionomycin, which is a calcium ion permeable carrier (‘calcium ionophore’) directly increasing the intracellular calcium concentration, were under observation. Further, using a Fura-2 dye that is combined with calcium to represent fluorescence, it was monitored whether the drug #28 is combined with calcium on a test tube and represents chelating effects."}, "[2]": {"system": "male Sprague-Dawley (SD) rats", "experiment": "Acute toxicity test", "assay_type": "in vivo", "set-up": "RBC: unit not given here", "details": "75 μg/kg intra-cerebroventricular", "description": "This procedure was repeated 4 times.\nFurther, the rat was sacrificed, and specific organs such as the liver, spleen and kidney were extracted, followed by measurement of weights thereof (FIG. 7)."}, "neuronal cells": {"system": "neuronal cells", "experiment": "H2O2-mediated intracellular zinc increase, FluoZin-3 staining", "assay_type": "cell-based", "details": "FluoZin-3, confocal microscopy"}, "[3]": {"system": "cultured cerebral cortex neurons of a mouse", "experiment": "Zinc ion permeable carrier test, ZinPyr-1", "assay_type": "cell-based", "procedure": "ZinPyr-1 is a fluorescent dye which has a lower Kd value than that of FluoZin-3 and is used to measure a change in a zinc concentration even at a lower concentration. Whether the drug #28 of the present invention can act as an ion permeable carrier was under observation using ZinPyr-1. More particularly, the cultured cerebral cortex neurons of a mouse were treated with ZinPyr-1 then treated with the drug #28 (0.05 μM) and clioquinol (0.5 μM) in a typically used neuronal cell culture medium, so as to determine a change in zinc ion concentrations in the neurons. Also, a non-treatment group was used as a control group.\nTherefore, after adding a further 0.5 μM concentration of zinc to the cell culture medium, a change in zinc concentration in the cells was under observation."}, "mouse cortical cultures": {"system": "mouse cortical cultures", "experiment": "TPEN-induced neurotoxicity (LDH secretion)", "assay_type": "cell-based", "description": "Generally, application of TPEN as a zinc chelator easily flowing into the cells causes a cell death in the form of typical apoptosis (EDTA is not introduced into the cells). When adding zinc to the above treatment, intracellular free zinc ions are retained thus to reduce neuronal death and further reduce caspase-3 protease activity in the apoptosis process. Under expectation such that: the drug #28 and clioquinol may not only serve as a chelator but also play a role of an ion permeable carrier; these drugs flow into cells as combined with zinc; thereafter, the zinc is removed from the drug because a concentration of free zinc in the cytoplasm is too low; therefore, the concentration of free zinc in the cytoplasm is increased thus to reduce neurotoxicity due to TPEN, caspase-3 activity and neurotoxicity (LDH secretion) were under observation after treatment using zinc, the drug #28 and clioquinol."}, "[4]": {"system": "cultured cerebral cortex neurons of a mouse", "experiment": "Intracellular free zinc after zinc exposure, FluoZin-3 (confocal microscope, fluorometer)", "assay_type": "cell-based", "procedure": "In order to monitor whether an actual free zinc concentration in neuronal cells is increased or not, the cultured cerebral cortex neurons of a mouse were pre-treated with a FluoZin-3 staining material, exposed to high concentration zinc, and then, treated with 4C01 (20 μM), 4C07 (20 μM) and the drug #28 (20, 50 μM). Thereafter, images of these treated neurons were observed using a confocal laser fluorescence microscope, and a fluorescent size was quantitatively measured using a fluorescence photometer (fluorometer)."}},
  "data": [
    {"smiles": "O=C1N=C(Nc2cccc(O)c2)S/C1=C\\c1c[nH]c2ccccc12", "note": "[compound 28, (Z)-5-((1H-indol-3-yl)methylene)-2-((3-hydroxyphenyl)amino)thiazol-4(5H)-one]", "values": [
      {"measurement": "affinity to calcium ions versus zinc ions", "setting": "[1]", "result": "lower affinity to calcium ions than zinc ions"},
      {"measurement": "chelating effects for calcium", "setting": "[1]; Fura-2 dye, test tube", "result": "shows the chelating effects for calcium in a high concentration"},
      {"measurement": "toxicity by blood indicators compared to control group", "setting": "[2]", "result": "noticeable toxicity was not observed"},
      {"measurement": "dead rats", "setting": "[2]; 24 hours", "result": "dead rats were not found"},
      {"measurement": "ALT", "setting": "[2]; n = 4, blood", "result": "54.5 ± 8.2", "unit": "U/L"},
      {"measurement": "AST", "setting": "[2]; n = 4, blood", "result": "142.3 ± 50.7", "unit": "U/L"},
      {"measurement": "BUN", "setting": "[2]; n = 4, blood", "result": "17.6 ± 1.8", "unit": "mg/dL"},
      {"measurement": "CREA", "setting": "[2]; n = 4, blood", "result": "0.5 ± 0.0", "unit": "mg/dL"},
      {"measurement": "GLU", "setting": "[2]; n = 4, blood", "result": "174.6 ± 18.0", "unit": "mg/dL"},
      {"measurement": "RBC", "setting": "[2]; n = 4, blood", "result": "7.4 ± 0.5 ×10^3"},
      {"measurement": "WBCB", "setting": "[2]; n = 4, blood", "result": "11.6 ± 1.9 ×10^3 cell/uL"},
      {"measurement": "zinc in the neuronal cells during H2O2 toxicity", "setting": "neuronal cells", "result": "zinc reduction in the neuronal cells"},
      {"measurement": "increase of zinc in neurons, general culture conditions", "setting": "[3]; #28 0.05 μM, clioquinol 0.5 μM", "result": "not clearly demonstrated"},
      {"measurement": "increase of zinc in neurons, zinc-supplemented medium", "setting": "[3]; further 0.5 μM zinc added to the cell culture medium", "result": "significant increase in zinc"},
      {"measurement": "neurotoxicity by TPEN", "setting": "mouse cortical cultures", "result": "decrease neurotoxicity by TPEN"},
      {"measurement": "increase in intracellular free zinc, fluorescence magnitude", "setting": "[4]; 4C01, 4C07 20 μM, #28 20, 50 μM, fluorometer", "result": "inhibit an increase in intracellular free zinc to the similar level"},
      {"measurement": "increase in free zinc in the neurons", "setting": "[4]; high concentration zinc, 20, 50 μM, confocal microscope", "result": "significantly reduced"}
    ]}
  ]
}
